In ChEMBL document CHEMBL1201862, “PubChem BioAssay data set” (2004):
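A five-concentration, 48-hour dose response in 96-well plates underlies each endpoint, interpolated linearly between surrounding concentrations. Abbreviation: GI50, concentration required for 50% inhibition of growth.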 Activity calls are given as the source filed them. No stated cut-off is given here; in the data, active = GI50 up to about 1.1 µM and inactive = higher.

Key:
Experiment in all cases: NCI anticancer screen, dose series, 48 h
[1] = system: MDA-MB-435
[2] = system: HCT-15
[3] = system: HOP-62
[4] = system: NCI-H226
[5] = system: SF-539
[6] = system: SK-MEL-2
[7] = system: BT-549
[8] = system: HL-60
[9] = system: UO-31
[10] = system: A549
[11] = system: Hs-578T
[12] = system: MCF7
[13] = system: SNB-75
[14] = system: SN12C
[15] = system: SK-MEL-28
[16] = system: NCI-H522
[17] = system: MDA-N
[18] = system: SF-268
[19] = system: EKVX
[20] = system: Malme-3M
[21] = system: SW-620
[22] = system: RPMI-8226
[23] = system: T47D
[24] = system: MOLT-4
[25] = system: UACC-62
[26] = system: UACC-257
[27] = system: DU-145
[28] = system: NCI/ADR-RES
[29] = system: PC-3
[30] = system: MDA-MB-231
[31] = system: KM12
[32] = system: A498
[33] = system: NCI-H460
[34] = system: HCC 2998
[35] = system: COLO 205
[36] = system: CCRF-CEM
[37] = system: OVCAR-3
[38] = system: SK-MEL-5
[39] = system: 786-0
[40] = system: SNB-19
[41] = system: U-251
[42] = system: IGROV-1
[43] = system: OVCAR-5
[44] = system: HCT-116
[45] = system: HT-29
[46] = system: TK-10
[47] = system: SR
[48] = system: RXF 393
[49] = system: ACHN
[50] = system: M14
[51] = system: OVCAR-8
[52] = system: K562
[53] = system: NCI-H23
[54] = system: HOP-92
[55] = system: SK-OV-3
[56] = system: OVCAR-4
[57] = system: LOX IMVI

| SMILES | GI50 [2] | GI50 [3] | GI50 [5] | GI50 [6] | GI50 [8] | GI50 [9] | GI50 [10] | GI50 [12] | GI50 [13] | GI50 [15] | GI50 [16] | GI50 [19] | GI50 [20] | GI50 [22] | GI50 [25] | GI50 [26] | GI50 [31] | GI50 [34] | GI50 [35] | GI50 [39] | also measured |
| --- | --- | --- | --- | --- | --- | --- | --- | --- | --- | --- | --- | --- | --- | --- | --- | --- | --- | --- | --- | --- | --- |
| CC(C(=O)O)c1ccc(-c2ccccc2)c(F)c1 (centres undefined) [TARENFLURBIL] | > 100 µM | > 100 µM (inactive) | > 100 µM (inactive) | > 100 µM (inactive) | > 100 µM (inactive) | > 100 µM (inactive) | > 100 µM (inactive) | > 100 µM (inactive) | > 100 µM (inactive) | > 100 µM (inactive) | > 100 µM (inactive) | > 100 µM (inactive) | > 100 µM (inactive) | – | – | – | – | – | – | – | GI50 [1]: > 100 µM (inactive); GI50 [4]: > 100 µM (inactive); GI50 [7]: > 100 µM (inactive); GI50 [11]: > 100 µM (inactive); GI50 [14]: > 100 µM (inactive); GI50 [17]: > 100 µM (inactive); GI50 [18]: > 100 µM (inactive) |
| CN(C)C1COC2Cc3ccccc3C1O2 (centres undefined) | – | > 100 µM (inactive) | > 100 µM (inactive) | > 100 µM (inactive) | > 100 µM (inactive) | > 100 µM (inactive) | – | > 100 µM (inactive) | – | > 100 µM (inactive) | > 100 µM (inactive) | > 100 µM (inactive) | > 100 µM (inactive) | > 100 µM (inactive) | > 100 µM (inactive) | > 100 µM (inactive) | > 100 µM (inactive) | > 100 µM (inactive) | > 100 µM (inactive) | > 100 µM (inactive) | GI50 [21]: > 100 µM (inactive); GI50 [1]: > 100 µM (inactive); GI50 [23]: > 100 µM (inactive); GI50 [24]: > 100 µM (inactive); GI50 [27]: > 100 µM (inactive); GI50 [4]: > 100 µM (inactive); GI50 [28]: > 100 µM (inactive); GI50 [29]: > 100 µM (inactive); GI50 [30]: > 100 µM (inactive); GI50 [32]: > 100 µM (inactive); GI50 [33]: > 100 µM (inactive); GI50 [11]: > 100 µM (inactive); GI50 [36]: > 100 µM (inactive); GI50 [37]: > 100 µM (inactive); GI50 [38]: > 100 µM (inactive); GI50 [17]: > 100 µM (inactive); GI50 [40]: > 100 µM (inactive); GI50 [41]: > 100 µM (inactive); GI50 [42]: > 100 µM (inactive) |
| COc1cc([C@@H]2c3cc4c(cc3[C@@H](Nc3ccc(NC(=O)c5cc([N+](=O)[O-])cn5C)cc3)[C@H]3COC(=O)[C@H]23)OCO4)cc(OC)c1O | 0.307 µM | 0.0198 µM (active) | 0.0617 µM (active) | 0.938 µM (active) | < 0.0213 µM (active) | 0.231 µM (active) | 0.0195 µM (active) | – | 0.0614 µM (active) | 0.621 µM (active) | 0.291 µM (active) | 0.658 µM (active) | – | – | 0.0612 µM (active) | 0.658 µM (active) | 0.216 µM (active) | 0.223 µM (active) | 0.219 µM (active) | 0.0627 µM (active) | GI50 [43]: 0.468 µM (active); GI50 [21]: 0.162 µM (active); GI50 [23]: 0.0134 µM (active); GI50 [44]: 0.138 µM (active); GI50 [27]: < 0.013 µM (active); GI50 [29]: 0.143 µM (active); GI50 [45]: 0.195 µM (active); GI50 [46]: 0.479 µM (active); GI50 [37]: 0.449 µM (active); GI50 [47]: < 0.01 µM (active); GI50 [48]: 0.352 µM (active); GI50 [49]: < 0.0108 µM (active); GI50 [50]: 0.0771 µM (active); GI50 [51]: 0.11 µM (active); GI50 [40]: 0.054 µM (active); GI50 [52]: 0.132 µM (active); GI50 [53]: 0.0401 µM (active); GI50 [18]: 0.118 µM (active); GI50 [54]: 0.0796 µM (active); GI50 [42]: 0.265 µM (active) |
| COc1cc(C(=O)N2CCN(C=O)C2=S)cc(OC)c1OC | – | – | – | – | – | 0.0675 µM (active) | – | – | – | – | – | – | – | 7.31 µM (inactive) | – | – | – | – | – | – | – |
| CO[C@@H]1/C=C\C=C(/C)C(=O)NC2=CC(=O)C(NCCN(C)C)=C(C[C@@H](C)C[C@@H](OC)[C@@H](O)[C@H](C)/C=C(\C)[C@H]1OC(N)=O)C2=O | 0.619 µM | – | – | – | – | 0.838 µM (active) | < 0.01 µM (active) | < 0.01 µM (active) | < 0.01 µM (active) | – | – | – | 0.013 µM (active) | 0.0713 µM (active) | 0.0172 µM (active) | 0.0159 µM (active) | 0.0122 µM (active) | 0.015 µM (active) | 0.0145 µM (active) | 0.0286 µM (active) | GI50 [24]: 0.0303 µM (active); GI50 [44]: 0.0171 µM (active); GI50 [55]: 0.0137 µM (active); GI50 [32]: 13.2 µM (inactive); GI50 [56]: 1.14 µM (inactive); GI50 [57]: 0.0108 µM (active); GI50 [36]: 0.0247 µM (active); GI50 [14]: 0.0113 µM (active); GI50 [47]: < 0.01 µM (active); GI50 [50]: 0.0104 µM (active); GI50 [51]: 0.0172 µM (active); GI50 [40]: 0.0292 µM (active); GI50 [41]: 0.011 µM (active); GI50 [52]: 0.0139 µM (active); GI50 [53]: < 0.01 µM (active); GI50 [42]: 0.0139 µM (active) |
